Source: US5084564A, “Production of oligosaccharide fractions having antithrombotic properties by controlled chemical depolymerization of heparin” (Bioiberica, S.A., priority 1988, dated 1992)

Settings: rat, in vivo, sc

**Q.** Which bioavailability does the source give for heparin here?
**A.** 48-60%
